{"source": "patent US5214034A", "about": "“Catechol derivatives, and preventive and remedial preparations for regressive disorders in the central nervous system containing the same” (priority 1986, dated 1993)", "key": {"[1]": {"system": "rats injected with kainic acid at basal forebrain", "experiment": "Promotion of recovery from retention deficits by repeated learning (passive avoidance)", "assay_type": "in vivo, rat (male Sprague-Dawley)", "parameters": "key: latency in seconds to enter dark chamber, capped at 300 s", "details": "Table 9, i.p. 5 mg/kg before each trial", "procedure": "(§1) Effects of the derivative on the behavioral parameters of rats injected with kainic acid at basal forebrain were characterized with regard to both prevention against deficits in retention of passive avoidance learning and promotion of recovery from damaged state by repeated learning.\n(§2) Male Sprague-Dawley rats (9-10 weeks of age, 200-250 g of weight) were anesthetized with Nembutal (50 mg/kg, i.p.) and placed in a stereotaxic apparatus. Bilateral lesions of the ventral globus pallidus were made by direct stereotaxic application (0.7 mm posterior to bregma, 2.7 mm lateral to the midline, and 7.0 mm ventral to the brain surface) of 0.25 μg of kainic acid in 1 μl of PBS (pH 7.4) to prepare disordered models. Controls were sham-operated rats injected with PBS in place of kainic acid solution.\n(§3) Passive avoidance procedures were performed by using a two chambered step-through passive avoidance apparatus with a guillotine door. A 3 mA scrambled shock was delivered to the dark floor grids for 3 seconds as a punishment. Habituation trial was conducted prior to the acquisition trial. Each rats were placed in the illuminated chamber and the guillotine door was raised after 10 seconds. As soon as the rats entered into the dark chamber, the door was lowered. The rats were removed after 10 seconds and returned to their home cages. […] The acquisition trial was performed similarly to the habituation trial. In the former case, a rat was placed in the illuminated room and the door was opened after 10 seconds. The door was shut immediately after the rat entered into the dark room, a scrambled foot shock was applied, and then the animal was removed. The latency to enter the dark chamber after opening the door was recorded for 300 seconds in the retention of passive avoidance. The latency exceeding 300 seconds was calculated as 300 seconds.\nThe promoting effects on the recovery by repeated training from the damaged state of retention were acessed by using 30 rats injected with kainic acid. Rats were subjected to the acquisition trial 10 days after the operation. The rats were equally divided into 3 groups after 24 hours and injected intrapenitroneally with 5 mg/kg of 4-n-propylcatechol and the derivative (A) (R=--CO--, R=H, R2 =n-propyl) respectively as a saline solution. The remaining 10 rats were intraperitoneally injected with saline alone. The first retention trial was carried out two days after the injection. Rats which entered into the dark chamber within 30 seconds were punished by the scrambled foot shock as a training. On the next day, all animals were administered again the same amount of test derivative or saline. These animals were subjected to the second retention trial two days after the second injection.\nRetention trials, punishments and additional administrations were repeated as mentioned above four times in all."}, "[2]": {"system": "rats injected with kainic acid at basal forebrain / sham-operated rats", "experiment": "Retention of passive avoidance learning: prevention of retention deficits", "assay_type": "in vivo, rat (male Sprague-Dawley)", "details": "Table 8, i.p. 5 mg/kg on days 1, 4, 7", "procedure": "as §1, §2, §3\nThe preventive effects on deficits in retention were estimated by using 60 rats. Thirty rats were injected with kainic acid and other 30 rats were sham-operated with PBS.\nEach groups of animals were equally divided into three groups which were received intraperitoneally 5 mg/kg of the derivative (A) (R=2H, R1 =H, R2 =n-propyl, that is, 4-n-propylcatechol), derivative A (R=--CO--, R1 =H, R2 =n-propyl) and saline respectively as a saline solution on one, four and seven days after the operation.\nTable 8 illustrates the results obtained by conducting the acquisition trial 10 days after the operation and the retention test after 24 hours."}, "Acute toxicity (LD50)": {"experiment": "Acute toxicity (LD50)", "details": "mouse, in vivo", "procedure": "The catechol derivative having normal type saturated lower alkyl groups on the ring was administered by intravenous injection (i.v.), intraperitoneal injection (i.p.) or oral route (p.o.) to male ddy mice of 4-week old. The LD50 values (mg/kg) were measured by an ordinary method."}}, "note": "Like-named read-outs stand apart in the source and are kept apart here."}
{"smiles": "CCCc1ccc(O)c(O)c1", "note": "[R = Two H, R1 = H, R2 = n-Propyl, 4-n-propylcatechol]", "values": [{"measurement": "Mean latency, 1st retention trial", "setting": "[1]", "value": "47 ± 16"}, {"measurement": "Mean latency, 4th retention trial", "setting": "[1]; **P < 0.01", "value": "272 ± 14"}, {"measurement": "Mean latency, 2nd retention trial", "setting": "[1]; *P < 0.05", "value": "147 ± 29"}, {"measurement": "Mean latency, 3rd retention trial", "setting": "[1]; *P < 0.05", "value": "201 ± 23"}, {"measurement": "Animals with more than 150 sec of latency", "setting": "[2]; rats operated with kainic acid", "value": 3, "unit": "in 10 animals"}, {"measurement": "Mean latency", "setting": "[2]; rats operated with kainic acid, *P < 0.01 vs control", "value": "114 ± 44", "unit": "s"}, {"measurement": "Animals with more than 150 sec of latency", "setting": "[2]; sham-operated rats", "value": 10, "unit": "in 10 animals"}, {"measurement": "Mean latency", "setting": "[2]; sham-operated rats", "value": "286 ± 9", "unit": "s"}, {"measurement": "LD50", "setting": "Acute toxicity (LD50); ip, intraperitoneal injection, read-out: LD50 i.p.", "value": "> 500", "unit": "mg/kg"}, {"measurement": "LD50", "setting": "Acute toxicity (LD50); intravenous injection, read-out: LD50 i.v.", "value": "> 150", "unit": "mg/kg"}, {"measurement": "LD50", "setting": "Acute toxicity (LD50); oral route, read-out: LD50 p.o.", "value": "> 1500", "unit": "mg/kg"}]}
